# Measurements as given in paper PMC7801616, “Surface hydrophobics mediate functional dimerization of CYP121A1 of Mycobacterium tuberculosis” (Scientific Reports, 2021).
# Key:
# CYP121A1 dimer = conditions: cited from earlier work
# Mtb = conditions: cited from earlier work
# [1] = test system: WT CYP121A1 heme thiolate-CO complex
smiles,measurement,setting,value
Clc1ccccc1C(c1ccccc1)(c1ccccc1)n1ccnc1 [clotrimazole],effect on dimerization of the enzyme,CYP121A1 dimer,disrupts dimerization of the enzyme
CC(=O)N1CCN(c2ccc(OCC3COC(Cn4ccnc4)(c4ccc(Cl)cc4Cl)O3)cc2)CC1 (centres unmarked) [ketoconazole],effect of ligand on thermal stability,WT CYP121A1,modest increase in the stability
same,inhibition of Mtb growth,Mtb,does not significantly inhibit Mtb growth
Clc1ccc(COC(Cn2ccnc2)c2ccc(Cl)cc2Cl)cc1 (centres unmarked) [econazole],effect on dimerization of the enzyme,CYP121A1 dimer,disrupts dimerization of the enzyme
"O=C1N[C@@H](Cc2ccc(O)cc2)C(=O)N[C@H]1Cc1ccc(O)cc1 [cYY, cyclo-L-Tyr-L-Tyr]",change of heme thiolate-CO complex stability with bound substrate,[1],little change
